Measurements reported in article PMC9604400, “Synthesis, Anticancer and Antitubercular Properties of New Chalcones and Their Nitrogen-Containing Five-Membered Heterocyclic Hybrids Bearing Sulfonamide Moiety” (International Journal of Molecular Sciences, 2022).
“And” between values parts separate entries of the source, which are not always exact repeats. Identical values can stand only once.

Assays:
SF-539 = experiment: NCI-60 screen (SRB), CNS cancer; conditions: Homo sapiens; for IC50: SF-539; for CC50: SF-539, read-out: LC50
KM12 = experiment: NCI-60 screen (SRB), colon cancer; conditions: Homo sapiens; for IC50: KM12; for CC50: KM12, read-out: LC50
HOP-62 = experiment: NCI-60 screen (SRB), non-small cell lung cancer; conditions: Homo sapiens; for IC50: HOP-62; for CC50: HOP-62, read-out: LC50
PC-3 = experiment: NCI-60 screen (SRB), prostate cancer; conditions: Homo sapiens; for IC50: PC-3; for CC50: PC-3, read-out: LC50
OVCAR-4 = experiment: NCI-60 screen (SRB), ovarian cancer; conditions: Homo sapiens; for IC50: OVCAR-4; for CC50: OVCAR-4, read-out: LC50
A498 = experiment: NCI-60 screen (SRB), renal cancer; conditions: Homo sapiens; for IC50: A498; for CC50: A498, read-out: LC50
U251 = experiment: NCI-60 screen (SRB), CNS cancer; conditions: Homo sapiens; for IC50: U-251; for CC50: U-251, read-out: LC50
[1] = system: 60 human cancer cell lines; experiment: NCI-60 screen (SRB), whole panel; type: cell-based; conditions: for IC50 / inhibition at 10 µM: Homo sapiens; for IC50: five-dose screen, read-out: IC50 values against most cell lines (range); for inhibition at 10 µM: read-out: Mean growth inhibition (GI) percentage
HCC-2998 = experiment: NCI-60 screen (SRB), colon cancer; conditions: for IC50 / CC50: Homo sapiens; for IC50: HCC 2998; for CC50: HCC 2998, read-out: LC50
RPMI-8226 = experiment: NCI-60 screen (SRB), leukemia; conditions: Homo sapiens; for IC50: RPMI-8226; for CC50: RPMI-8226, read-out: LC50
CCRF-CEM = experiment: NCI-60 screen (SRB), leukemia; conditions: Homo sapiens; for CC50: read-out: LC50
MOLT-4 = experiment: NCI-60 screen (SRB), leukemia; conditions: Homo sapiens; for IC50: MOLT-4; for CC50: MOLT-4, read-out: LC50
LOX IMVI = experiment: NCI-60 screen (SRB), melanoma; conditions: for IC50 / CC50: Homo sapiens; for CC50: read-out: LC50; for lethality: single dose 10 μM
EKVX = experiment: NCI-60 screen (SRB), non-small cell lung cancer; conditions: Homo sapiens; for CC50: read-out: LC50
OVCAR-8 = experiment: NCI-60 screen (SRB), ovarian cancer; conditions: Homo sapiens; for IC50: OVCAR-8; for CC50: OVCAR-8, read-out: LC50
SNB-75 = experiment: NCI-60 screen (SRB), CNS cancer; conditions: Homo sapiens; for IC50: SNB-75; for CC50: SNB-75, read-out: LC50
HCT-116 = experiment: NCI-60 screen (SRB), colon cancer; conditions: for IC50 / CC50: Homo sapiens; for IC50: HCT-116; for CC50: HCT-116, read-out: LC50
NCI/ADR-RES = experiment: NCI-60 screen (SRB), ovarian cancer; conditions: Homo sapiens; for CC50: read-out: LC50
RXF 393 = experiment: NCI-60 screen (SRB), renal cancer; conditions: for IC50 / CC50: Homo sapiens; for IC50: RXF 393; for CC50: RXF 393, read-out: LC50; for lethality: RXF 393, single dose 10 μM
leukemia cell lines = experiment: NCI-60 screen (SRB), leukemia panel; type: cell-based; conditions: Homo sapiens; for inhibition at 10 µM: leukemia panel, single dose 10 μM, read-out: GI (growth inhibition), range over panel
A549/ATCC = experiment: NCI-60 screen (SRB), non-small cell lung cancer; conditions: Homo sapiens; for IC50: A549; for CC50: A549, read-out: LC50
[2] = single dose 10 μM, mean over 60 cell lines, over 100% = cell death

SMILES: COc1cc(OC)c(S(N)(=O)=O)cc1C(=O)C=Cc1ccccc1 [Compound 17a, 5-Cinnamoyl-2,4-dimethoxybenzenesulfonamide]
- IC50 (SF-539): 2.44 µM
- CC50 (SF-539): 30.1 µM
- IC50 (KM12): 3.31 µM
- CC50 (KM12): 62.3 µM
- IC50 (HOP-62): 9.51 µM
- CC50 (HOP-62): 51.9 µM
- IC50 (PC-3): 5.95 µM
- CC50 (PC-3): 50.4 µM
- IC50 (OVCAR-4): 11.8 µM
- CC50 (OVCAR-4): 55.9 µM
- IC50 (A498): 16.9 µM
- CC50 (A498): 55.8 µM
- IC50 (U251): 2.92 µM
- CC50 (U251): 39.2 µM
- IC50 [1]: 0.34 to 17.6 µM
- inhibition at 10 µM [1, 2]: 71.8%
- IC50 (HCC-2998): 12.5 µM
- CC50 (HCC-2998): 54.7 µM
- IC50 (RPMI-8226): 2.98 µM
- CC50 (RPMI-8226): > 100 µM
- IC50 (CCRF-CEM): 3.93 µM
- CC50 (CCRF-CEM): > 100 µM
- IC50 (MOLT-4): 10.1 µM
- CC50 (MOLT-4): > 100 µM
- IC50 (LOX IMVI): 0.34 µM
- CC50 (LOX IMVI): 41.4 µM
- IC50 (EKVX): 14.2 µM
- CC50 (EKVX): 53.6 µM
- IC50 (OVCAR-8): 11.3 µM
- CC50 (OVCAR-8): 51.3 µM
- IC50 (SNB-75): 2.08 µM
- CC50 (SNB-75): 26.9 µM
- IC50 (HCT-116): 1.49 µM
- CC50 (HCT-116): 67.2 µM
- IC50 (NCI/ADR-RES): 15.5 µM
- CC50 (NCI/ADR-RES): > 100 µM
- IC50 (RXF 393): 1.9 µM
- CC50 (RXF 393): 30 µM
- lethality (RXF 393): 29.73%
- inhibition at 10 µM (leukemia cell lines): 70.8 to 94.8%
- IC50 (A549/ATCC): 10.5 µM
- CC50 (A549/ATCC): 49 µM

SMILES: COc1cc(OC)c(S(N)(=O)=O)cc1C(=O)/C=C/c1ccc(Cl)cc1 [Compound 17b, (E)-5-(3-(4-Chlorophenyl)acryloyl)-2,4-dimethoxybenzenesulfonamide]
- IC50 (SF-539): 2.14 µM
- CC50 (SF-539): 12.6 µM
- IC50 (KM12): 1.82 µM
- CC50 (KM12): > 100 µM
- IC50 (HOP-62): 2.5 µM
- CC50 (HOP-62): 25.9 µM
- IC50 (PC-3): 1.6 µM
- CC50 (PC-3): 20.8 µM
- IC50 (OVCAR-4): 3.54 µM
- CC50 (OVCAR-4): > 100 µM
- IC50 (A498): 18.6 µM
- CC50 (A498): 62.2 µM
- IC50 (U251): 2.18 µM
- CC50 (U251): > 100 µM
- IC50 [1]: 0.73 to 18.6 µM
- inhibition at 10 µM [1, 2]: 94.1%
- IC50 (HCC-2998): 2.41 µM
- CC50 (HCC-2998): 22.3 µM
- IC50 (RPMI-8226): 1.86 µM
- CC50 (RPMI-8226): > 100 µM
- IC50 (CCRF-CEM): 1.52 µM
- CC50 (CCRF-CEM): > 100 µM
- IC50 (MOLT-4): 2.83 µM
- CC50 (MOLT-4): > 100 µM
- IC50 (LOX IMVI): 0.73 µM
- CC50 (LOX IMVI): 7.03 µM
- lethality (LOX IMVI): 50.40%
- IC50 (EKVX): 3.88 µM
- CC50 (EKVX): > 100 µM
- IC50 (OVCAR-8): 3.01 µM
- CC50 (OVCAR-8): > 100 µM
- IC50 (SNB-75): 1.5 µM
- CC50 (SNB-75): 6.95 µM
- IC50 (HCT-116): 0.75 µM
- CC50 (HCT-116): 5.13 µM
- IC50 (NCI/ADR-RES): 3.97 µM
- CC50 (NCI/ADR-RES): > 100 µM
- IC50 (RXF 393): 1.62 µM
- CC50 (RXF 393): 6.89 µM
- lethality (RXF 393): 40.37%
- inhibition at 10 µM (leukemia cell lines): 92.8 to 100%
- IC50 (A549/ATCC): 3.17 µM
- CC50 (A549/ATCC): > 100 µM

SMILES: COc1cc(OC)c(S(N)(=O)=O)cc1C(=O)/C=C/c1ccc(C)cc1 [Compound 17c, (E)-2,4-Dimethoxy-5-(3-(p-tolyl)acryloyl)benzenesulfonamide]
- IC50 (SF-539): 2.17 µM
- CC50 (SF-539): 14.4 µM
- IC50 (KM12): 3.13 µM
- CC50 (KM12): > 100 µM
- IC50 (HOP-62): 2.9 µM
- CC50 (HOP-62): 29.5 µM
- IC50 (PC-3): 3.42 µM
- CC50 (PC-3): 55.1 µM
- IC50 (OVCAR-4): 3.66 µM
- CC50 (OVCAR-4): 53.2 µM
- IC50 (A498): 16.2 µM
- CC50 (A498): 58.1 µM
- IC50 (U251): 2.66 µM
- CC50 (U251): 32.7 µM
- IC50 [1]: 0.54 to 11.5 µM
- inhibition at 10 µM [1, 2]: 81.2%
- IC50 (HCC-2998): 2.39 µM
- CC50 (HCC-2998): 22.3 µM
- IC50 (RPMI-8226): 3.2 µM
- CC50 (RPMI-8226): > 100 µM
- IC50 (CCRF-CEM): 3.99 µM
- CC50 (CCRF-CEM): > 100 µM
- IC50 (MOLT-4): 3.07 µM
- CC50 (MOLT-4): > 100 µM
- IC50 (LOX IMVI): 0.54 µM
- CC50 (LOX IMVI): 76.2 µM
- IC50 (EKVX): 4.33 µM
- CC50 (EKVX): 43.3 µM
- IC50 (OVCAR-8): 2.17 µM
- CC50 (OVCAR-8): 15.8 µM
- IC50 (SNB-75): 1.84 µM
- CC50 (SNB-75): 18.2 µM
- IC50 (HCT-116): 30.6 µM
- CC50 (HCT-116): 58 µM
- IC50 (NCI/ADR-RES): 5.25 µM
- CC50 (NCI/ADR-RES): > 100 µM
- IC50 (RXF 393): 2.24 µM
- CC50 (RXF 393): 28.8 µM
- lethality (RXF 393): 28.21%
- inhibition at 10 µM (leukemia cell lines): 78.9 to 94.3%
- IC50 (A549/ATCC): 2.75 µM
- CC50 (A549/ATCC): 34.8 µM

SMILES: COc1cc(OC)c(S(=O)(=O)N(CCCl)CCCl)cc1C(=O)/C=C/c1cc(OC)c(OC)c(OC)c1 [Compound 18e, (E)-N,N-bis(2-Chloroethyl)-2,4-dimethoxy-5-(3-(3,4,5-trimethoxyphenyl)acryloyl)benzenesulfonamide]
- IC50 (SF-539): 3.61 µM
- CC50 (SF-539): 7.51 µM
- IC50 (KM12): 4.25 µM
- CC50 (KM12): 9.4 µM
- IC50 (HOP-62): 3.77 µM
- CC50 (HOP-62): > 100 µM
- IC50 (PC-3): > 100 µM
- CC50 (PC-3): > 100 µM
- IC50 (OVCAR-4): > 100 µM
- CC50 (OVCAR-4): > 100 µM
- IC50 (A498): 7.23 µM
- CC50 (A498): 65.5 µM
- IC50 (U251): 3.68 µM
- CC50 (U251): 7.61 µM
- mean lethality ([1]; single dose 10 μM, mean over 60 cell lines): 25.48%
- Mean growth inhibition (GI) percentage [1, 2]: 100.00% and 125.48%
- lethality (HCC-2998; HCC-2998, single dose 10 μM): 91.08%
- IC50 (HCC-2998): 3.54 µM
- CC50 (HCC-2998): 6.35 µM
- IC50 (RPMI-8226): 2.52 µM
- CC50 (RPMI-8226): > 100 µM
- IC50 (CCRF-CEM): 1.69 µM
- CC50 (CCRF-CEM): > 100 µM
- IC50 (MOLT-4): 2.04 µM
- CC50 (MOLT-4): > 100 µM
- IC50 (LOX IMVI): 2.89 µM
- CC50 (LOX IMVI): 5.79 µM
- lethality (LOX IMVI): 84.53%
- IC50 (EKVX): 2.69 µM
- CC50 (EKVX): > 100 µM
- IC50 (OVCAR-8): > 100 µM
- CC50 (OVCAR-8): > 100 µM
- IC50 (SNB-75): 8.53 µM
- CC50 (SNB-75): > 100 µM
- lethality (HCT-116; HCT-116, single dose 10 μM): 87.74%
- IC50 (HCT-116): 2.82 µM
- CC50 (HCT-116): 6.47 µM
- IC50 (NCI/ADR-RES): > 100 µM
- CC50 (NCI/ADR-RES): > 100 µM
- IC50 (RXF 393): 2.83 µM
- CC50 (RXF 393): 6.44 µM
- IC50 (leukemia cell lines; read-out: IC50 (GI50), range over leukemia panel): 0.99 to 2.52 µM
- IC50 (A549/ATCC): 3.11 µM
- CC50 (A549/ATCC): > 100 µM
